{"source": "patent US20230310317A1", "about": "“SOL-GEL COMPOSITION” (THE UNIVERSITY OF QUEENSLAND, priority 2020, published 2023)", "origin": "cited, not measured here", "conditions": "aqueous media e.g. gel-based systems"}
{"smiles": "C[C@@H]1C[C@H]2[C@@H]3CCC4=CC(=O)C=C[C@]4(C)[C@@]3(Cl)[C@@H](O)C[C@]2(C)[C@@]1(OC(=O)c1ccco1)C(=O)CCl", "note": "[MF, mometasone furoate]", "values": [{"measurement": "Solubility in aqueous media", "result": "practically insoluble"}]}
